ChEMBL document CHEMBL6134823, “Combination therapy and dual-target inhibitors based on cyclin-dependent kinases (CDKs): Emerging strategies for cancer therapy” (Eur J Med Chem, 2025)
Values belong to the compound of their own block, whether it stands above or below them.

Columns and labels:
[1] = target: Cyclin-dependent kinase 1/cyclin B1 (Homo sapiens) (UniProt P06493+P14635); experiment: Inhibition of CDK1/cyclin B1 (unknown origin) at 10 nM relative to control; type: protein-complex assay
[2] = target: Receptor tyrosine-protein kinase erbB-2 (Homo sapiens) (UniProt P04626); experiment: Inhibition of HER2 (unknown origin) at 10 uM in presence of ATP relative to control
HT-29 = experiment: Antiproliferative activity against human HT-29 cells assessed as reduction in cell viability incubated for 24 hrs by MTT assay; type: functional, cell-based; settings: HT-29, 24 h
PANC-1 = experiment: Antiproliferative activity against human PANC-1 cells assessed as reduction in cell viability incubated for 24 hrs by MTT assay; type: functional, cell-based; settings: PANC-1, 24 h
MCF7 [3] = experiment: Antiproliferative activity against human MCF7 cells assessed as reduction in cell viability incubated for 24 hrs by MTT assay; type: functional, cell-based; settings: MCF7, 24 h
A549 [4] = experiment: Antiproliferative activity against human A549 cells assessed as reduction in cell viability incubated for 24 hrs by MTT assay; type: functional, cell-based; settings: A549, 24 h
[5] = target: T1, Poly [ADP-ribose] polymerase 1 (Homo sapiens, UniProt P09874); experiment: Inhibition of PARP-1 (unknown origin) incubated for 60 mins by chemiluminescent assay
[6] = target: T2, Cyclin-dependent kinase 2 (Homo sapiens, UniProt P24941)
MCF7 [7] = experiment: Growth inhibition of human MCF-7 cells incubated for 72 hrs by SRB assay; type: functional
K562 = experiment: Growth inhibition of human K562 cells incubated for 72 hrs by SRB assay; type: functional
[8] = target: T3, Cyclin-dependent kinase 4 (Homo sapiens, UniProt P11802); experiment: Inhibition of CDK4 (unknown origin) at 1 uM relative to control
[9] = target: T4, Cyclin-dependent kinase 9 (Homo sapiens, UniProt P50750)
Description: Inhibition of CDK9 (unknown origin) by ADP-Glo kinase assay

[10] = target: T5, Epidermal growth factor receptor (Homo sapiens, UniProt P00533)
MDA-MB-231 [11] = experiment: Cytotoxicity against human MDA-MB-231 cells; type: functional, cell-based
SUM-159-PT = experiment: Cytotoxicity against human SUM159 cells; type: functional, cell-based
OVCAR-5 = experiment: Antiproliferative activity against human OVCAR-5 cells assessed as growth inhibition incubated for 48 hrs by SRB assay; type: functional, cell-based; settings: OVCAR-5, 48 h
SK-OV-3 [12] = experiment: Cytotoxicity against human SK-OV-3 cells assessed as inhibition of cell growth incubated for 72 hrs by MTT assay; type: functional, cell-based; settings: SK-OV-3, 72 h
SK-OV-3 [13] = experiment: Antiproliferative activity against human SK-OV-3 cells; type: functional, cell-based
[14] = Antiproliferative activity against human PC-3 cells; type: functional, cell-based
A549 [15] = experiment: Antiproliferative activity against human A549 cells; type: functional, cell-based
HeLa = experiment: Antiproliferative activity against human HeLa cells; type: functional, cell-based
Histone deacetylase 2 = Histone deacetylase 2 (Homo sapiens, UniProt Q92769)
Description: Inhibition of HDAC2 (unknown origin)

[16] = target: T5, Epidermal growth factor receptor; experiment: Inhibition of EGFR (unknown origin) using Poly (Glu, Tyr) as substrate incubated for 60 mins in presence of ATP by Kinase-Glo Plus luminescence kinase assay relative to control
[17] = target: T2, Cyclin-dependent kinase 2; experiment: Inhibition of CDK2 (unknown origin) by luminescence kinase assay
[18] = target: T2, Cyclin-dependent kinase 2; remark: listed apart in the source
Description: Inhibition of CDK2 (unknown origin) by mobility shift assay

[19] = target: Extracellular calcium-sensing receptor (Homo sapiens, UniProt P41180); experiment: Inhibition of CASR (unknown origin)
Aurora kinase A = Aurora kinase A (Homo sapiens, UniProt O14965); experiment: Inhibition of Aurora A (unknown origin)
[20] = target: Cyclin-dependent kinase 5 (Homo sapiens, UniProt Q00535)
Description: Inhibition of CDK5 (unknown origin)

[21] = target: Cyclin-dependent kinase 7 (Homo sapiens, UniProt P50613); experiment: Inhibition of CDK7 (unknown origin)
[22] = target: T4, Cyclin-dependent kinase 9; experiment: Inhibition of CDK9 (unknown origin)
[23] = target: Receptor-type tyrosine-protein kinase FLT3 (Homo sapiens, UniProt P36888); experiment: Inhibition human recombinant FLT3
[24] = target: T3, Cyclin-dependent kinase 4; experiment: Inhibition of human CDK4 extracted from baculovirus infected Sf9 insect cells incubated for 1 hrs in presence of ATP by liquid scintillation counter analysis
HepG2 = experiment: Cytotoxicity against human HepG2 cells assessed as reduction in cell growth incubated fro 72 hrs by MTT assay; type: functional, cell-based; settings: HepG2, 72 h
MCF7 [25] = experiment: Cytotoxicity against human MCF7 cells assessed as reduction in cell growth incubated fro 72 hrs by MTT assay; type: functional, cell-based; settings: MCF7, 72 h
HCT-116 = experiment: Cytotoxicity against human HCT-116 cells assessed as reduction in cell growth incubated fro 72 hrs by MTT assay; type: functional, cell-based; settings: HCT-116, 72 h
A549 [26] = experiment: Cytotoxicity against human A549 cells assessed as reduction in cell growth incubated fro 72 hrs by MTT assay; type: functional, cell-based; settings: A549, 72 h
Histone deacetylase 1 = Histone deacetylase 1 (Homo sapiens, UniProt Q13547)
Description: Inhibition of HDAC1 (unknown origin)

[27] = target: Amine oxidase [flavin-containing] A (Homo sapiens, UniProt P21397); experiment: Inhibition of MAO-A (unknown origin) measured by MAO-GloTM method
MDA-MB-468 = experiment: Cytotoxicity against human MDA-MB-468 cells assessed as cell growth inhibition; type: functional, cell-based
[28] = target: Cyclin-dependent kinase 6 (Homo sapiens, UniProt Q00534)
Description: Inhibition of CDK6 (unknown origin))

[29] = target: T1, Poly [ADP-ribose] polymerase 1; experiment: Inhibition of PARP1 (unknown origin)
MDA-MB-231 [30] = experiment: Cytotoxicity against human MDA-MB-231 cells assessed as cell growth inhibition; type: functional, cell-based
BT-549 = experiment: Cytotoxicity against human BT-549 cells assessed as cell growth inhibition; type: functional, cell-based
MDA-MB-231 [31] = experiment: Cytotoxicity against human MDA-MB-231 cells assessed as reduction in cell growth incubated for 72 hrs by MTT assay; type: functional, cell-based; settings: MDA-MB-231, 72 h
MCF7 [32] = experiment: Cytotoxicity against human MCF7 cells assessed as reduction in cell growth incubated for 72 hrs by MTT assay; type: functional, cell-based; settings: MCF7, 72 h

T3 sequence (P11802 whole entry): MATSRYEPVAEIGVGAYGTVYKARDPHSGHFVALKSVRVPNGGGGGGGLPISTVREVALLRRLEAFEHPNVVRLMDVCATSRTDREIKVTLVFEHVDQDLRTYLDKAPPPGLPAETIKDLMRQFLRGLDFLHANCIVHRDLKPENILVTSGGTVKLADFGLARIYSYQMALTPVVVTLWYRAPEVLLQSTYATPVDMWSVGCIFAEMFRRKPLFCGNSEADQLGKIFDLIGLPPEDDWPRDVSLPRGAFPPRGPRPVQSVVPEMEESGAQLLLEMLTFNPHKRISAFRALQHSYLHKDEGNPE
T5 sequence (P00533 whole entry): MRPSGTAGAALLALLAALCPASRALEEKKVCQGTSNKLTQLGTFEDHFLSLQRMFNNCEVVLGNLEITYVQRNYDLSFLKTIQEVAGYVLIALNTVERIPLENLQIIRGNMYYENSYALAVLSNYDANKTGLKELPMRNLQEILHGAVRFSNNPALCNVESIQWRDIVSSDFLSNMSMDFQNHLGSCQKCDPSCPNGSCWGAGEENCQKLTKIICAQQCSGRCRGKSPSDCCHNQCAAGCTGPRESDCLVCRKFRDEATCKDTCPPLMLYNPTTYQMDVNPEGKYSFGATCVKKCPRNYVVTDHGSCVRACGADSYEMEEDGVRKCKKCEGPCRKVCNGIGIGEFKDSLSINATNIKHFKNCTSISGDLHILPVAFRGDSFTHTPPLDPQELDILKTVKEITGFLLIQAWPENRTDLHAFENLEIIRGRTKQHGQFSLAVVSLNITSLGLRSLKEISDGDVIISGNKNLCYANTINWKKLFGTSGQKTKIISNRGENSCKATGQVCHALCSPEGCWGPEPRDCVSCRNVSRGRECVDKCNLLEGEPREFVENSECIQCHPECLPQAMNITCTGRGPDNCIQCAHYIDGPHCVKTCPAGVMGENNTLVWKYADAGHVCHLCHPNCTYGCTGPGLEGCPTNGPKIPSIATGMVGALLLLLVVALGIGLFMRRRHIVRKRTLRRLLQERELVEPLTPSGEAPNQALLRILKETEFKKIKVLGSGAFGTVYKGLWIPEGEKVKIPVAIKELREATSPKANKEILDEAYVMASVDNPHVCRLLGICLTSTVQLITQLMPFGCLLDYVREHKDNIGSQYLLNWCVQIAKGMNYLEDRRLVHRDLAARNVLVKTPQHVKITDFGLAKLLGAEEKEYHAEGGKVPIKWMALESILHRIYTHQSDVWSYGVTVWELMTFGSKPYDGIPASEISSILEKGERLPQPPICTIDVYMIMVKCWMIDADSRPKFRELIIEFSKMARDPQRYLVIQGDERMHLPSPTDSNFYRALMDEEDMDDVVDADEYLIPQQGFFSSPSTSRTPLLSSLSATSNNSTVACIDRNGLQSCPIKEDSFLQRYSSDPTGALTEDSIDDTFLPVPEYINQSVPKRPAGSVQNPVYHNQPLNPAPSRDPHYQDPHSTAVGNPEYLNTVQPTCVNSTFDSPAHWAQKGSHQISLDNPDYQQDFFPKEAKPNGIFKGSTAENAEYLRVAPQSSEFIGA
T4 sequence (P50750 whole entry): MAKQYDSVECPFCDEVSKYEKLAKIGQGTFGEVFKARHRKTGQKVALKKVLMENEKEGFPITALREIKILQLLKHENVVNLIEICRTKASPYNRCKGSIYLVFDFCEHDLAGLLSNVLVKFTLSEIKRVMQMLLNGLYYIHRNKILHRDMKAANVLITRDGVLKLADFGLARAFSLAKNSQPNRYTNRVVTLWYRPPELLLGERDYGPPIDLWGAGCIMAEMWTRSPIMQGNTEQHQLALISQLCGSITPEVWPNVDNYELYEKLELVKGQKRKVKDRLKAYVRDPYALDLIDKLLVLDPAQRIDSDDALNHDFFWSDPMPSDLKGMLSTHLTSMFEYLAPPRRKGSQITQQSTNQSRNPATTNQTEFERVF
Sequence of Cyclin-dependent kinase 7 (P50613 whole entry): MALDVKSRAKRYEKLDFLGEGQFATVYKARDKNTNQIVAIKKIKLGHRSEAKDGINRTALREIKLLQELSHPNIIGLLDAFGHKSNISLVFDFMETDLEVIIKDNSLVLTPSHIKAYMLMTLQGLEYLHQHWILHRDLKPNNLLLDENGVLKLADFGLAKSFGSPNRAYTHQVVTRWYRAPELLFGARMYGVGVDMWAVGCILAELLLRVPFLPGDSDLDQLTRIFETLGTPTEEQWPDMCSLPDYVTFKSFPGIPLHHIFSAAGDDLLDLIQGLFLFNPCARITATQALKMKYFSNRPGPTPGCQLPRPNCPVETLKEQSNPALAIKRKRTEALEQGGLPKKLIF
Sequence of Receptor-type tyrosine-protein kinase FLT3 (P36888 whole entry): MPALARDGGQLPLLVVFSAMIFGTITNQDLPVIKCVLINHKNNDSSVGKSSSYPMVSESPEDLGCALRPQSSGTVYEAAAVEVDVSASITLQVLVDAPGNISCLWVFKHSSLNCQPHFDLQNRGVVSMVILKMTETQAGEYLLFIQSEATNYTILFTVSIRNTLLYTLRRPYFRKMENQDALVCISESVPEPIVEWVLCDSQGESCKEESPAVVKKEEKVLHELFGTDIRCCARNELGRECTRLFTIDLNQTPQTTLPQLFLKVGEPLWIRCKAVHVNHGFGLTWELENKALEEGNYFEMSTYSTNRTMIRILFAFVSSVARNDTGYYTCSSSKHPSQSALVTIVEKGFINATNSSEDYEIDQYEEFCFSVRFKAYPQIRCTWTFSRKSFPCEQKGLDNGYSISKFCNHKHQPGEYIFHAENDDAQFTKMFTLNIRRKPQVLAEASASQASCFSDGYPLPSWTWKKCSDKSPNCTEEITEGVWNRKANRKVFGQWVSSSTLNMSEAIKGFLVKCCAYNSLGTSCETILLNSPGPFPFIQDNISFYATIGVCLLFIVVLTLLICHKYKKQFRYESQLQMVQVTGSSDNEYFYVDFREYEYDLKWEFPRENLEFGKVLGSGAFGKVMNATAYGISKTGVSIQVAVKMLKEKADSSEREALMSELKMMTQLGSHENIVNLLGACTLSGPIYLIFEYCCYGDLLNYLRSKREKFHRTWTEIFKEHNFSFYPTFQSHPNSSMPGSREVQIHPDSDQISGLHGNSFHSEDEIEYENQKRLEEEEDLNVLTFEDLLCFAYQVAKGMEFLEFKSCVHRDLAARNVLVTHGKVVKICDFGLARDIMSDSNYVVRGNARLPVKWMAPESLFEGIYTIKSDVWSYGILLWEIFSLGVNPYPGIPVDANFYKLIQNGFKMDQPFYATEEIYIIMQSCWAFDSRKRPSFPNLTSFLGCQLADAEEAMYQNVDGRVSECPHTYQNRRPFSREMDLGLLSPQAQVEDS
T1 sequence (P09874 whole entry): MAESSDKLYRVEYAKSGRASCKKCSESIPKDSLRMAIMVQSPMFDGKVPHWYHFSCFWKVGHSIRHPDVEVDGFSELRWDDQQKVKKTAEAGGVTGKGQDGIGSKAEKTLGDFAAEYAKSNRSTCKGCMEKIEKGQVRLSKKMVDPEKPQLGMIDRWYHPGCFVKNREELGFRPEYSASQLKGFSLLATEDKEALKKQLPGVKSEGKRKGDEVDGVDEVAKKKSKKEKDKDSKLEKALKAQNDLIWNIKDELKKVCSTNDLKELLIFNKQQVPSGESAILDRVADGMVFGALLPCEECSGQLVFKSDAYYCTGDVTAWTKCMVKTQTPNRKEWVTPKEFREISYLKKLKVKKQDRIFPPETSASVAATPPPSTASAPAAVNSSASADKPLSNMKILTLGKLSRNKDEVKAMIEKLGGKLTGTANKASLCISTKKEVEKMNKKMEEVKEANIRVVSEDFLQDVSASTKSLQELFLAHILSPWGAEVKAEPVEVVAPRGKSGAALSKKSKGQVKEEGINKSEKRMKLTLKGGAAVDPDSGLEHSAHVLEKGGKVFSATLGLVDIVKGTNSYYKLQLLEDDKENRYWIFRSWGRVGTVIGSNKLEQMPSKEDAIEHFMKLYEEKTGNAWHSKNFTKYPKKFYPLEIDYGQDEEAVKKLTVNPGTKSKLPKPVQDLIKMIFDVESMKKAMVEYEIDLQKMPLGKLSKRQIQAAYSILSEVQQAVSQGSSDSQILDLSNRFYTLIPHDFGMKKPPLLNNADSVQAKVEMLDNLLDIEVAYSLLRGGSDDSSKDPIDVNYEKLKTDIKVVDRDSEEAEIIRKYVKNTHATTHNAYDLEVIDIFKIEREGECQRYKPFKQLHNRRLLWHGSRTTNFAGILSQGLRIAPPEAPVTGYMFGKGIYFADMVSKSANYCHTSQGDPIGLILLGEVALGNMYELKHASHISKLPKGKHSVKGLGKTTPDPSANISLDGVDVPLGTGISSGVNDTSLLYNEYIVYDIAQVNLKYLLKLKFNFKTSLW
Sequence of Aurora kinase A (O14965 whole entry): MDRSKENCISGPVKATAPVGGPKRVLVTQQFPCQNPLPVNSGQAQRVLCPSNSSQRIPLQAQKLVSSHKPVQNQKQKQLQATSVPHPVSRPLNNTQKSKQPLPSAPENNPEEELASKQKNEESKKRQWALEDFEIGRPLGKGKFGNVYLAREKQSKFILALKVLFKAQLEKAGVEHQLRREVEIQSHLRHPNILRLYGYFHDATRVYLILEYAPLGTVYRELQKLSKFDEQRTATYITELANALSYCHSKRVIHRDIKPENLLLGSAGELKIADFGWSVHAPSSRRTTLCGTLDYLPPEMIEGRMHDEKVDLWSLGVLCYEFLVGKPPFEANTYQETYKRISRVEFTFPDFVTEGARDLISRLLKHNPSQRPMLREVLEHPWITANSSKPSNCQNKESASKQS
Sequence of Cyclin-dependent kinase 5 (Q00535 whole entry): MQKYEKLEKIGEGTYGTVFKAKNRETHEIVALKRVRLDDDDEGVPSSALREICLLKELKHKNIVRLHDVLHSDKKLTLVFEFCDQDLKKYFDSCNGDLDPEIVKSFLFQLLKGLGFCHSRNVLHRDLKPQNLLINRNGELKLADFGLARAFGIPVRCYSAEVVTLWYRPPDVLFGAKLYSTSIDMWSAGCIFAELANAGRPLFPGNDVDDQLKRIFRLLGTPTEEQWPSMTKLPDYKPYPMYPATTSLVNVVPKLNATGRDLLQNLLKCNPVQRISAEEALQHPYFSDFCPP

SMILES: Cc1nnc2n1N=C(c1ccccc1OCC(=O)NCCCNC(=O)COc1ccccc1C1=Nn3c(C)nnc3SC1)CS2
- IC50 [5]: 0.00137 µM

SMILES: COC[C@@H](C)N[C@H]1CC[C@H](Nc2cc(-c3cccc(NCC4(C#N)CCOCC4)n3)c(Cl)cn2)CC1
- IC50 [9]: 0.00051 µM

SMILES: Cc1cc(C)cc(NNC(=O)[C@H]2CCCN2C(=O)Nc2ccc(Cl)cc2)c1
- IC50 [6]: 0.015 µM
- IC50 [10]: 0.096 µM

SMILES: Cc1n[nH]c2c1C(c1ccc(F)cc1)C(C#N)=C(N)O2 (centres undefined)
- IC50 (SK-OV-3 [13]): 2.03 µM
- IC50 [14]: 2.8 µM
- IC50 (A549 [15]): 1.8 µM
- IC50 (HeLa): 1.9 µM

SMILES: CC[C@H](CO)Nc1nc(NCc2ccccc2N)c2[nH]nc(C(C)C)c2n1
- IC50 [6]: 0.07 µM
- IC50 (Aurora kinase A): 0.4 µM
- IC50 [20]: 0.26 µM

SMILES: CCOc1ccc(C2C(C#N)=C(N)OC3C2C(C)=NN3c2ccc(Cl)cc2)cc1 (centres undefined)
- IC50 [10]: 0.00021 µM
- IC50 [22]: 1.26 nM

SMILES: CCN1CCN(c2ccc(Nc3ncc(F)c(-c4cnc5cnn(C(C)C)c5c4)n3)cc2F)CC1
- IC50 [23]: 0.011 µM
- IC50 [24]: 0.007 µM

SMILES: O=C(Nc1ccc2[nH]ncc2c1)c1cccc(Cl)c1Cl
- IC50 [27]: > 10 µM

SMILES: O=C(CC(=O)Nc1cccc(C(=O)Nc2cccc(Nc3ncc(Cl)c(-c4c[nH]c5ccccc45)n3)c2)c1)NO
- IC50 (MDA-MB-231 [31]): 23 µM
- IC50 (MCF7 [32]): 18.1 µM

SMILES: CCN1CCN(c2ccc(Nc3ncc(F)c(-c4cnc5cnn(C(C)C)c5c4)n3)cc2)CC1
- IC50 [23]: 0.008 µM
- IC50 [24]: 0.01 µM

SMILES: CCOc1ccc(/C=C2/C(=O)N(c3ccc(Cl)cc3)N=C2C)cc1
- IC50 [10]: 0.00012 µM
- IC50 [22]: 0.077 nM

Now from value to compound, other results behind:

- inhibition [1]: 51%
- inhibition [2]: 52%
SMILES: O=C(Nc1ccc2c(ccn2C(=O)c2cccc(F)c2)c1)c1ccnnc1

- IC50 (HT-29): 4.2 µM
- IC50 (PANC-1): 4.1 µM
- IC50 (MCF7 [3]): 3.7 µM
- IC50 (A549 [4]): 3.9 µM
SMILES: Cc1ccc(NNC(=O)[C@H]2CCCN2C(=O)Nc2ccc(C(F)(F)F)cc2)cc1

- IC50 [6]: > 1000 µM
- GI50 (MCF7 [7]): 21.4 µM
- GI50 (K562): 17 µM
SMILES: CCCCCCCNc1nc(NCc2ccccc2)c2n[nH]c(C(C)C)c2n1

- IC50 [6]: 3.91 µM
- inhibition [8]: 5.31%
SMILES: O=C(Nc1cc(-c2ccc3nc4c([nH]c5ccccc54)c(N4CCOCC4)c3c2)ccn1)C1CC1

- IC50 [6]: 0.023 µM
- IC50 [10]: 0.087 µM
SMILES: Cc1cc(C)cc(NNC(=O)[C@H]2CCCN2C(=O)Nc2ccc(C(F)(F)F)cc2)c1

- IC50 (OVCAR-5): 0.758 µM
SMILES: Cc1nc2c(F)cc(-c3nc(Nc4ccc(N5CCN(C(=O)c6cc(Cc7n[nH]c(=O)c8ccccc78)ccc6F)CC5)cn4)ncc3F)cc2n1C(C)C
- IC50 (MDA-MB-231 [11]): 3.61 µM
- IC50 (SUM-159-PT): 0.435 µM
- IC50 (SK-OV-3 [12]): 0.548 µM

- IC50 (Histone deacetylase 2): 0.093 µM
SMILES: Nc1ccc(F)cc1NC(=O)c1ccc(CNC(=O)/C=C/c2cccnc2)cc1

- IC50 [16]: 0.165 µM
- IC50 [17]: 0.0896 µM
SMILES: O=C(c1ccc2ccccc2c1)c1cn(-c2ccccc2)nc1C1=Nn2c(S)nnc2SC1

- IC50 [18]: 0.003 µM
SMILES: O=C1Nc2ccccc2/C1=C1/Nc2ccccc2C1=O [INDIRUBIN]

- IC50 [19]: 2.8 µM
SMILES: C[C@@H](NCCCc1cccc(C(F)(F)F)c1)c1cccc2ccccc12

- IC50 [21]: 0.019 µM
SMILES: CN(C)C/C=C/C(=O)Nc1cccc(C(=O)Nc2cccc(Nc3ncc(Cl)c(-c4c[nH]c5ccccc45)n3)c2)c1

- IC50 [16]: 0.0647 µM
SMILES: O=C(c1ccc2ccccc2c1)c1cn(-c2ccccc2)nc1C1=Nn2cnnc2SC1

- IC50 [6]: 0.145 µM
- inhibition [8]: 41.1%
SMILES: N[C@H]1CCN(c2c3cc(-c4ccnc(NC(=O)C5CC5)c4)ccc3nc3c2[nH]c2ccccc23)C1
- IC50 (HepG2): 1.95 µM
- IC50 (MCF7 [25]): 1.12 µM
- IC50 (HCT-116): 0.821 µM
- IC50 (A549 [26]): 0.949 µM

- IC50 (Histone deacetylase 1): 0.248 µM
- IC50 [21]: 0.893 µM
SMILES: O=C(CCCCCCC(=O)Nc1cccc(C(=O)Nc2cccc(Nc3ncc(Cl)c(-c4c[nH]c5ccccc45)n3)c2)c1)NO

- IC50 [28]: 0.127 µM
- IC50 [29]: 0.041 µM
SMILES: Cc1cc(=O)n(C2CCCC2)c2nc(NCCC3CCN(C(=O)c4cc(Cc5n[nH]c(=O)c6ccccc56)ccc4F)CC3)ncc12
- IC50 (MDA-MB-468): 2.81 µM
- IC50 (MDA-MB-231 [30]): 1.96 µM
- IC50 (BT-549): 2.37 µM
